According to patent publication US9321756B2, “Azole compounds as PIM inhibitors” (priority 2011, dated 2016):
Where two headings read alike, the source gives them in different places.

Assays:
[1] = target: full length recombinant Pim-1 (Homo sapiens (Human), UniProt P11309); assay: Pim enzyme assay (HTRF, phosphorylation of biotinylated-BAD (S112) peptide), Pim-1; format: biochemical
[2] = target: full length recombinant Pim-2 (Homo sapiens (Human), UniProt Q9P1W9); assay: Pim enzyme assay (HTRF, phosphorylation of biotinylated-BAD (S112) peptide), Pim-2; format: biochemical; conditions: read-out: Pim2_IC50
[3] = Pim-1 enzyme assay, read-out: Pim_1_IC50
[4] = HTRF, 10-point curve, high dose 1 uM, 2 h at RT, read-out: Pim_1_IC50

full length recombinant Pim-1, sequence (P11309 whole entry): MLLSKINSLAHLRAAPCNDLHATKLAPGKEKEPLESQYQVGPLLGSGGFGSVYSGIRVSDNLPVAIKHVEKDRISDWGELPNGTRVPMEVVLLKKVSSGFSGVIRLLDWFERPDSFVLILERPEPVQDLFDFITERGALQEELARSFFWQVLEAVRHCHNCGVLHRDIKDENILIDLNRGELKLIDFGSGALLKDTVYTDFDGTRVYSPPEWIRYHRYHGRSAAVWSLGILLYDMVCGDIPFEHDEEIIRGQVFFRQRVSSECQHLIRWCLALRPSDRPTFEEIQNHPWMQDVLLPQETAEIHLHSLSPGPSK
full length recombinant Pim-2, sequence (Q9P1W9 whole entry): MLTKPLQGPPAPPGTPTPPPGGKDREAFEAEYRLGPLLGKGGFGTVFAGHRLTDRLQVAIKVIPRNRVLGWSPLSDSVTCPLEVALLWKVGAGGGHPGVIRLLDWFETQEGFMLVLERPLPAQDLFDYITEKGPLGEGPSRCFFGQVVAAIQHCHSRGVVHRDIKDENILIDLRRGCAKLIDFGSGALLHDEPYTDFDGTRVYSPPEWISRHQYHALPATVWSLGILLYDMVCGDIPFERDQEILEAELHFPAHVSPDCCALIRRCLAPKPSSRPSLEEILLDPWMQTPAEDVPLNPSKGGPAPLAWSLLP

Compound	IC50 [1, 3] [nM]	IC50 ([2]; Pim-2 enzyme assay) [nM]	IC50 [1] [nM]	IC50 [1, 4] [nM]	IC50 [2] [nM]
Nc1nnc(-c2ccc3[nH]cc(-c4ccccc4F)c3n2)o1 [Example 9, 5-(3-(2-fluorophenyl)-1H-pyrrolo[3,2-b]pyridin-5-yl)-1,3,4-oxadiazol-2-amine]	644	717			
c1ccc(Nc2nnc(-c3ccc4[nH]cc(-c5cncc(C6CC6)n5)c4c3)o2)cc1 [Example 40, 5-(3-(6-Cyclopropylpyrazin-2-yl)-1H-indol-5-yl)-N-phenyl-1,3,4-oxadiazol-2-amine]	105	215			
CC(C)c1ccnc(-c2c[nH]c3ccc(-c4nnc(NCC#N)o4)cc23)n1 [Example 45, 2-((5-(3-(4-isopropylpyrimidin-2-yl)-1H-indol-5-yl)-1,3,4-oxadiazol-2-yl)amino)acetonitrile]	3.83	2.83			
CC(C)Nc1nnc(-c2ccc3[nH]cc(-c4nc(C(=O)O)cc(C5CC5)n4)c3c2)o1 [Example 47, 6-cyclopropyl-2-(5-(5-(isopropylamino)-1,3,4-oxadiazol-2-yl)-1H-indol-3-yl)pyrimidine-4-carboxylic acid]	20.1	1.16			
CC(C)Nc1nnc(-c2ccc3[nH]cc(-c4nc(C(N)=O)cc(C5CC5)n4)c3c2)o1 [Example 48, 6-cyclopropyl-2-(5-(5-(isopropylamino)-1,3,4-oxadiazol-2-yl)-1H-indol-3-yl)pyrimidine-4-carboxamide]	2.53				
CC(C)(C)Nc1nnc(-c2ccc3[nH]cc(-c4nccc(C5CC5)n4)c3c2)o1 [Example 54, N-tert-butyl-5-(3-(4-cyclopropylpyrimidin-2-yl)-1H-indol-5-yl)-1,3,4-oxadiazol-2-amine 2,2,2-trifluoroacetate]	1.58				2.4
COc1ccnc(-c2c[nH]c3ccc(-c4nnc(NC(C)C)o4)cc23)n1 [Example 59, N-isopropyl-5-(3-(4-methoxypyrimidin-2-yl)-1H-indol-5-yl)-1,3,4-oxadiazol-2-amine]	30.4	16.7			
CC(C)Nc1nnc(-c2ccc3[nH]cc(-c4nccc(OC5CCCN(C)C5)n4)c3c2)o1 (stereo not drawn) [Example 62, N-isopropyl-5-(3-(4-((1-methylpiperidin-3-yl)oxy)pyrimidin-2-yl)-1H-indol-5-yl)-1,3,4-oxadiazol-2-amine 2,2,2-trifluoroacetate]	69.5				207
CC(C)Oc1cccc(-c2c[nH]c3ccc(-c4nc(N)ns4)cc23)n1 [Example 63, 5-(3-(6-isopropoxypyridin-2-yl)-1H-indol-5-yl)-1,2,4-thiadiazol-3-amine]	551	400			
CC(C)Nc1cncc(-c2c[nH]c3ccc(-c4nsc(N)n4)cc23)n1 [Example 66, 3-(3-(6-(isopropylamino)pyrazin-2-yl)-1H-indol-5-yl)-1,2,4-thiadiazol-5-amine]	20.1	649			
CC(C)Nc1cncc(-c2c[nH]c3ccc(-c4nc(N)no4)cc23)n1 [Example 67, 5-(3-(6-(isopropylamino)pyrazin-2-yl)-1H-indol-5-yl)-1,2,4-oxadiazol-3-amine]	5.79				58.9
CC(C)Oc1cccc(-c2c[nH]c3ccc(-c4nc(N)no4)cc23)n1 [Example 68, 5-(3-(6-isopropoxypyridin-2-yl)-1H-indol-5-yl)-1,2,4-oxadiazol-3-amine]	42.7				79.7
CC(C)Oc1cccc(-c2c[nH]c3ccc(-c4noc(N)n4)cc23)n1 [Example 69, 3-(3-(6-isopropoxypyridin-2-yl)-1H-indol-5-yl)-1,2,4-oxadiazol-5-amine]	241	668			
CC(C)Nc1cncc(-c2c[nH]c3ccc(-c4noc(N)n4)cc23)n1 [Example 70, 3-(3-(6-(isopropylamino)pyrazin-2-yl)-1H-indol-5-yl)-1,2,4-oxadiazol-5-amine]	30.4	362			
CC(C)Nc1nc(-c2ccc3[nH]cc(-c4cncc(OC(C)C)n4)c3c2)no1 [Example 73, 3-(3-(6-isopropoxypyrazin-2-yl)-1H-indol-5-yl)-N-isopropyl-1,2,4-oxadiazol-5-amine]	45.9				504
CNc1nnc(-c2ccc3[nH]cc(-c4nccc(-c5ccccc5)n4)c3c2)s1 [Example 131, N-methyl-5-(3-(4-phenyl-2-pyrimidinyl)-1H-indol-5-yl)-1,3,4-thiadiazol-2-amine]	88.2	35.8			
CNC(=O)c1ccc(-c2c[nH]c3ccc(-c4nnc(NC(C)C)o4)cc23)nc1 [Example 295, N-methyl-6-(5-(5-((1-methylethyl)amino)-1,3,4-oxadiazol-2-yl)-1H-indol-3-yl)-3-pyridinecarboxamide]				578	

Now from value to molecule, other results behind:

IC50 [1, 3] [nM]	IC50 ([2]; Pim-2 enzyme assay) [nM]	IC50 [1] [nM]	IC50 [1, 4] [nM]	Compound	IC50 [2] [nM]
92.5	30.8			CC(C)Cc1nnc(-c2ccc3[nH]cc(-c4nccc(C5CC5)n4)c3c2)o1 [Example 51, 2-(3-(4-cyclopropylpyrimidin-2-yl)-1H-indol-5-yl)-5-isobutyl-1,3,4-oxadiazole]	
	28.7	8.77		COc1nc(-c2c[nH]c3ccc(-c4nnc(NC(C)(C)C)o4)cc23)ncc1F [Example 55, N-tert-butyl-5-(3-(5-fluoro-4-methoxypyrimidin-2-yl)-1H-indol-5-yl)-1,3,4-oxadiazol-2-amine 2,2,2-trifluoroacetate]	
2.53				CC(C)(C)Nc1nnc(-c2ccc3[nH]cc(-c4ncc(F)c(C5CC5)n4)c3c2)o1 [Example 56, N-tert-butyl-5-(3-(4-cyclopropyl-5-fluoropyrimidin-2-yl)-1H-indol-5-yl)-1,3,4-oxadiazol-2-amine]	
5.79	21			CCc1nc(-c2c[nH]c3ccc(-c4nnc(NC(C)(C)C)o4)cc23)ncc1F [Example 57, N-tert-butyl-5-(3-(4-ethyl-5-fluoropyrimidin-2-yl)-1H-indol-5-yl)-1,3,4-oxadiazol-2-amine]	
20.1	13.5			CC(C)Nc1nnc(-c2ccc3[nH]cc(-c4nccc(OC(C)C)n4)c3c2)o1 [Example 60, 5-(3-(4-isopropoxypyrimidin-2-yl)-1H-indol-5-yl)-N-isopropyl-1,3,4-oxadiazol-2-amine]	
45.9	46.8			CC(C)Nc1nnc(-c2ccc3[nH]cc(-c4nccc(N5CCN(C)C(=O)C5)n4)c3c2)o1 [Example 61, 4-(2-(5-(5-(isopropylamino)-1,3,4-oxadiazol-2-yl)-1H-indol-3-yl)pyrimidin-4-yl)-1-methylpiperazin-2-one]	
335				CC(C)Oc1cccc(-c2c[nH]c3ccc(-c4nsc(N)n4)cc23)n1 [Example 65, 3-(3-(6-isopropoxypyridin-2-yl)-1H-indol-5-yl)-1,2,4-thiadiazol-5-amine]	
69.5	538			CC(C)Oc1cncc(-c2c[nH]c3ccc(-c4noc(N)n4)cc23)n1 [Example 71, 3-(3-(6-isopropoxypyrazin-2-yl)-1H-indol-5-yl)-1,2,4-oxadiazol-5-amine]	
69.5				CNc1nc(-c2ccc3[nH]cc(-c4cncc(OC(C)C)n4)c3c2)no1 [Example 72, 3-(3-(6-isopropoxypyrazin-2-yl)-1H-indol-5-yl)-N-methyl-1,2,4-oxadiazol-5-amine]	
186	> 1000			CC(=O)Nc1nc(-c2ccc3[nH]cc(-c4cncc(OC(C)C)n4)c3c2)no1 [Example 74, N-(3-(3-(6-isopropoxypyrazin-2-yl)-1H-indol-5-yl)-1,2,4-oxadiazol-5-yl)acetamide]	
> 1000	838			Nc1nnc(-c2ccc3[nH]cc(-c4cc(C(F)(F)F)ncn4)c3c2)o1 [Example 95, 5-(3-(6-(trifluoromethyl)-4-pyrimidinyl)-1H-indol-5-yl)-1,3,4-oxadiazol-2-amine]	
389				CC(C)Cn1cc(-c2c[nH]c3ccc(-c4nnc(N)o4)nc23)cn1 [Example 127, 5-(3-(1-(2-methylpropyl)-1H-pyrazol-4-yl)-1H-pyrrolo[3,2-b]pyridin-5-yl)-1,3,4-oxadiazol-2-amine]	
398	1220			CCN(C)c1cnc(-c2c[nH]c3ccc(-c4nnc(N)s4)cc23)cn1 [Example 188, 5-(5-(5-amino-1,3,4-thiadiazol-2-yl)-1H-indol-3-yl)-N-ethyl-N-methyl-2-pyrazinamine]	
1140	1950			CNc1nnc(-c2ccc3[nH]cc(-c4ccccc4)c3c2)s1 [Example 223, N-methyl-5-(3-phenyl-1H-indol-5-yl)-1,3,4-thiadiazol-2-amine]	
26.7	141			CC1(C)COCCN1c1nnc(-c2ccc3[nH]cc(-c4cncc(C5CC5)n4)c3c2)o1 [Example 253, 3-(6-cyclopropyl-2-pyrazinyl)-5-(5-(3,3-dimethyl-4-morpholinyl)-1,3,4-oxadiazol-2-yl)-1H-indole]	
30.4	36.9			CCOc1nc(-c2c[nH]c3ccc(-c4nnc(NC(C)C)o4)cc23)ncc1F [Example 259, 5-(3-(4-ethoxy-5-fluoro-2-pyrimidinyl)-1H-indol-5-yl)-N-(1-methylethyl)-1,3,4-oxadiazol-2-amine]	
			664	CC(C)Nc1nnc(-c2ccc3[nH]cc(-c4cccc(C(=O)NC5CC5)n4)c3c2)o1 [Example 294, N-cyclopropyl-6-(5-(5-((1-methylethyl)amino)-1,3,4-oxadiazol-2-yl)-1H-indol-3-yl)-2-pyridinecarboxamide]	
			291	CC(C)Nc1nnc(-c2ccc3[nH]cc(-c4cc(C(=O)N(C)C)ccc4F)c3c2)o1 [Example 302, 4-fluoro-N,N-dimethyl-3-(5-(5-((1-methylethyl)amino)-1,3,4-oxadiazol-2-yl)-1H-indol-3-yl)benzamide]	
			268	CC(C)Nc1nnc(-c2ccc3[nH]cc(-c4ccc(C(N)=O)cn4)c3c2)o1 [Example 303, 6-(5-(5-((1-methylethyl)amino)-1,3,4-oxadiazol-2-yl)-1H-indol-3-yl)-3-pyridinecarboxamide]	
